Values of other authors as cited in US20230218508A1, “BIODEGRADABLE COMPOSITIONS AND IMPLANTS” (RE-VANA THERAPEUTICS LTD, priority 2020, published 2023).

B1: Ranibizumab (antibody, chains of the INN, looked up, V domains shown)
VH: EVQLVESGGGLVQPGGSLRLSCAASGYDFTHYGMNWVRQAPGKGLEWVGWINTYTGEPTYAADFKRRFTFSLDTSKSTAYLQMNSLRAEDTAVYYCAKYPYYYGTSHWYFDVWGQGTLVTVSS
VL: DIQLTQSPSSLSASVGDRVTITCSASQDISNYLNWYQQKPGKAPKVLIYFTSSLHSGVPSRFSGSGSGTDFTLTISSLQPEDFATYYCQQYSTVPWTFGQGTKVEIK
modifications: Fab
notes: Marketed antibody therapeutic (LUCENTIS®) with molecular weight close to Ovalbumin

Details: target daily release level; for ranibizumab and BEZ about five times the literature IC50

| Molecule | minimum therapeutic level |
| --- | --- |
| CC(C)OC(=O)CCC/C=C\C[C@@H]1[C@@H](CC[C@@H](O)CCc2ccccc2)[C@H](O)C[C@@H]1O [LP, Latanoprost] | 0.105 µg/day |
| Bevacizumab [BEZ] | 0.5 µg/day |
| B1 | 0.5 µg/day |
